Data taken from US20120237535A1, “Therapeutic Compositions For The Treatment of HPV-Induced Diseases” (priority 2009, published 2012).

What was measured:
[1] = test system: TC-1 tumor cells expressing HPV16-E6 and HPV16-E7; experiment: Therapeutic efficacy against established TC-1 tumors (approximately 8 mm, treated day 25); type: in vivo, C57BL/6 mice; conditions: TC-1 s.c., treated i.v. day 25, tumors about 8 mm; for tumor growth: mean of two perpendicular diameters
Protocol: FIG. 6: Therapeutic efficacy of the EDA-HPVE7 fusion protein combined with poly I:C (pI:C). Mice were injected with 5×10^5 TC-1 cells and 25 days later, when tumor mean diameters were approximately 8 mm, they were treated intravenously with different vaccine combinations based on EDA (A). Tumor size, presented as the average of two perpendicular diameters (millimeters), was measured at regular intervals. The number of tumor-free mice on day 100 relative to the total number of animals included and the percent surviving on day 100 are indicated for each set of experiments. The p-value (*p<0.05) determined by the likelihood ratio test comparing tumor growth in the EDA-E7/pI:C treated group with tumor growth in the p:IC-treated group is indicated. The mice were sacrificed when the tumor diameters reached 20 mm or when necessary due to the sanitary status of the animals. (B) Survival curves from the immunized mice with the indicated immunogens are indicated (p values are indicated ((*p<0.05)). Pooled data of two independent experiments are shown.
THP1 cells (American Type Culture Collection ATCC, Manassas, Va.) were used for in vitro assays of monocyte activation by EDA derived fusion proteins. TC-1, tumor cells expressing HPV16-E6 and HPV16-E7 proteins derived from primary mouse lung epithelial cells, were obtained from the American Type Culture Collection (LGC Promochem, Molsheim, France). Cells were maintained in RPMI 1640 with GlutaMAX supplemented with 10% heat-inactivated fetal calf serum, 100 units/ml penicillin, 100 μg/ml streptomycin, 0.4 mg/ml geneticin and 5×10-5 mol/l 2-mercaptoethanol (Life Technologies, Cergy-Pontoise, France). 5×10^5 TC-1 cells were injected into the shaved back (left side) of C57BL/6 mice in 200 μL PBS. Tumor size, presented as the average of two perpendicular diameters (millimeters), was measured at regular intervals.
Monolix software (http://www.monolix.org/) was used for analysis of tumor growth data with non-linear mixed effect models. Mean diameters of tumors over time were fitted using the model described in equation 1.1 and treatments were compared using the likelihood ratio test.
Kaplan-Meier plots were used to analyze survival. Prism software (GraphPad Software, Inc. San Diego, USA) was used to determine the significance of differences in survival curves with a log rank test. The results of the in vivo killing analysis were analyzed by ANOVA followed by Dunnett's Multiple Comparison test. p values less than 0.05 were considered to be statistically significant.
To better evaluate the potency of EDA-HPVE7 as an antigen delivery system and as a vaccine, the therapeutic efficacy of this fusion protein was compared with that of the E7(49-57) peptide, both supplemented with TLR ligand pI:C. […]

[2] = test system: bone marrow-derived dendritic cells; experiment: Maturation of bone marrow-derived dendritic cells, maturation markers by flow cytometry; type: cell-based, mouse; conditions: BMDC incubated with 500 nM
Protocol: FIG. 2: Activation of bone marrow-derived dendritic cell maturation by the EDAHPV-E7 fusion protein. Bone marrow-derived dendritic cells were incubated for 48 hours with EDA-HPVE7 (500 nM), with peptide E7(49-57) (500 nM), with LPS (1 μg/ml) (positive control) or with culture medium (Control Neg). Cells were then harvested and analyzed by flow cytometry for the expression of the H-2b molecule or the maturation markers CD54 and CD86 (RFU: Relative fluorescence units).
Bone marrow (BM)-derived dendritic cells were generated from mouse femur marrow cell cultures. After lysing erythrocytes with ACK lysing buffer, bone marrow cell were washed and subsequently depleted of lymphocytes and granulocytes by incubation with a mixture of antibodies against CD4 (GK1; ATCC, Manassas, Va.), CD8 (53.6.72; ATCC), Ly-6G/Gr1 (BD-Pharmingen; San Diego, Calif.) and CD45R/B220 (BD-Pharmingen) followed by rabbit complement. […] After 24 h of culture, supernatants were harvested and IL-12 (p70) and TNF-α were measured by ELISA (BD-Pharmingen), according to manufacturer's instructions. Expression of DC maturation markers was measured by flow cytometry. […] After this initial incubation, cells were stained with the primary antibodies at 4° C. for 15 min, washed and acquired on FACSscan cytometer (BD Biosciences, San Diego, Calif.) and analyzed using Cell Quest software (BD Biosciences). […]

[3] = test system: bone marrow-derived dendritic cells; experiment: IL-12 production by bone marrow-derived dendritic cells (ELISA); type: cell-based, mouse; conditions: 500 nM; ELISA of culture supernatant
Protocol: (§1) FIG. 3: EDA-HPV-E7 fusion protein induces the production of IL-12 by bone marrow-derived dendritic cells or the production of TNF-α by the human monocyte cell line THP-1. (A) Bone marrow-derived dendritic cells were incubated for […] with EDA-HPVE7 (500 nM), with peptide E7(49-57) (500 nM), with LPS (1 μg/ml) (positive control) or with culture medium (negative control). 24 hours later, the culture supernatant was harvested and the IL-12 released to the supernatant was measured by ELISA. (B) THP-1 cells were incubated for 15 hours with EDA-HPVE7 (500 nM), with peptide E7(49-57) (500 nM), with LPS (1 μg/ml) or with culture medium (negative control). After culture, the supernatants were harvested and the released TNF-α was measured by ELISA.
Bone marrow (BM)-derived dendritic cells were generated from mouse femur marrow cell cultures. […] After 24 h of culture, supernatants were harvested and IL-12 (p70) and TNF-α were measured by ELISA (BD-Pharmingen), according to manufacturer's instructions. Expression of DC maturation markers was measured by flow cytometry. […] After this initial incubation, cells were stained with the primary antibodies at 4° C. for 15 min, washed and acquired on FACSscan cytometer (BD Biosciences, San Diego, Calif.) and analyzed using Cell Quest software (BD Biosciences). […]

[4] = test system: human monocyte cell line THP-1; experiment: In vitro monocyte activation, TNF-α released by THP-1 (ELISA); type: cell-based; conditions: 500 nM, 15 hours
Protocol: as §1
THP-1 cells were plated at 1×10^6 cells/well and cultured overnight at 37° C. and 5% CO2 in complete medium for stabilization of the culture. Different concentrations of the indicated antigens were added to the cultures and after 15 hour of incubation, culture supernatants were harvested. The concentration of human TNF-α released to the medium by the THP-1 cell line was quantified using a commercial ELISA assay (BD Pharmingen), according to manufacturer's instructions.
Therefore, it was assayed if the recombinant protein EDA-HPV-E7 was also able to induce maturation of BMDC in vitro.

[5] = test system: EL4 cells pulsed with DTc peptide; experiment: In vivo induction of CTL by immunization, chromium release assay; design: species or system C57BL/6 mice; conditions: 2 nmol i.v. in PBS, no adjuvant; spleen cells day 7, cultured 5 days; compared with peptide DTc/E7(49-57)
Protocol: FIG. 4: In vivo induction of CTL by immunization with EDA-HPV-E7 protein or with the DTc/E7(49-57) peptide in PBS. (A) Mice were immunized i.v with 2 nmol EDA-HPV-E7 or with the DTc/E7(49-57) peptide. Seven days alter immunization, the mice were sacrificed and spleen cells were cultured in the presence or absence of DTc peptide for 5 days. CTL activity was measured using a conventional chromium release assay using EL4 cells radio labeled and pulsed with DTc peptide as target cells in the splenocytes cultures obtained from the mice immunized with the protein EDA-HPV-E7 (closed circles) ◯ with the peptide DTc/E7 (49-57) (open circles) (On the graphic, the absolute values are shown, said values are calculated by subtracting the value of lysis obtained without peptide from the value obtained in the presence of peptide). […]
It was assayed if mice immunized with the EDA-HPVE7 fusion protein developed HPVE7-specific T cell responses. […] CTL activity was measured using a conventional chromium release assay using radio labeled EL4 cells pulsed with DTc peptide or without peptide as target cells. (FIG. 4A) (On the graphic, the absolute values are shown, said values are calculated subtracting the value of lysis obtained without peptide from the value obtained in the presence of peptide). […]

[6] = test system: HPVE7-specific T cell responses; experiment: IFN-γ producing cells by ELISPOT in splenocytes of immunized mice; type: in vivo, C57BL/6 mice; conditions: 2 nmol i.v. in PBS, compared with E7(49-57) peptide

Substance | survival ([1]; Kaplan-Meier, log rank test) | tumor growth [1] | expression of the maturation marker CD54 [2] | expression of the maturation marker IAb [2] | production of IL-12 cytokine by BMDC [3] | production of TNF-α cytokine by THP-1 [4] | CTL activity against target cells pulsed with the cytotoxic T cell epitope E7 [5] | number of IFN-γ producing spots specific for E7(49-57) [6] | number of IFN-γ producing spots specific for TC1 cells ([6]; irradiated TC1 cells) | tumor eradication (in words) [1]
Polyinosinic-polycytidylic acid [pI:C, reference compound] | slight, statistically non-significant prolongation of survival | followed the same tumor growth kinetics |  |  |  |  |  |  |  | 
EDA-HPVE7: recombinant fusion protein: amino acids 1-29 of HPV-E7 at N-terminus of fibronectin EDA, amino acids 43-98 at C-terminus, six histidine residues |  | a delay in tumor growth was observed | able to upregulate expression | able to upregulate expression | able to strongly stimulate the production | able to induce the production | higher levels of CTL activity | higher number of IFN-γ producing spots | higher number of IFN-γ producing spots | unable to eradicate the tumors
